# ChEMBL document CHEMBL3885861, “Open TG-GATES”
# Species: Rattus norvegicus
# Experiment: Open TG-GATES - Regimen: Single
# Assay type: toxicity, organism-based, Sprague-Dawley
# Parameters: regimen Single, gender Male, age 6 weeks
# Conditions: in vivo, po, 0 mg/kg, route gavage, dose level Control; for APTT / Bas / Eos / Fbg / Hb / Ht / Lym / MCH / MCHC / MCV / Mono / Neu / PT / Plat / RBC / Ret / WBC: tissue Blood; for KIDNEY_L / KIDNEY_R / KIDNEY_TOTAL: tissue Kidney; for LIVER: tissue Liver; for ALP / ALT / AST / CRE / DBIL / GLC / IP / K / LDH / Na / PL / RALB / TBIL / TC / TP / gamma-GTP: tissue Plasma
structure (smiles),measurement,setting,value
Clc1ccccc1CN1CCc2sccc2C1 [TICLOPIDINE],TERMINAL_BW,3 h,208.4 g
same,APTT,3 h,18.6 s
same,Bas,3 h,0%
same,Eos,3 h,1%
same,Fbg,3 h,221.2 mg/dL
same,Hb,3 h,13.2 g/dL
same,Ht,3 h,37.6%
same,Lym,3 h,73.2%
same,MCH,3 h,21.1 pg
same,MCHC,3 h,35%
same,MCV,3 h,60.3 fL
same,Mono,3 h,3%
same,Neu,3 h,21.8%
same,PT,3 h,11.9 s
same,Plat,3 h,123.5 x10_4/uL
same,RBC,3 h,623.4 x10_4/ul
same,Ret,3 h,7.9%
same,WBC,3 h,82.6 x10_2/uL
same,KIDNEY_L,3 h,0.9 g
same,KIDNEY_R,3 h,0.9 g
same,KIDNEY_TOTAL,3 h,1.9 g
same,LIVER,3 h,9.5 g
same,ALP,3 h,806 IU/L
same,ALT,3 h,37.4 IU/L
same,AST,3 h,69.2 IU/L
same,CRE,3 h,0.4 mg/dL
same,DBIL,3 h,0.07 mg/dL
same,GLC,3 h,204.6 mg/dL
same,IP,3 h,9.8 mg/dL
same,K,3 h,3.9 meq/L
same,LDH,3 h,129.2 IU/L
same,Na,3 h,141.2 meq/L
same,PL,3 h,142.4 mg/dL
same,RALB,3 h,3.3 g/dL
same,TBIL,3 h,0.1 mg/dL
same,TC,3 h,79.2 mg/dL
same,TP,3 h,5.4 g/dL
same,gamma-GTP,3 h,1.2 IU/L
same,TERMINAL_BW,6 h,208.2 g
same,APTT,6 h,18.7 s
same,Bas,6 h,0.2%
same,Eos,6 h,1%
same,Fbg,6 h,214.6 mg/dL
same,Hb,6 h,13.4 g/dL
same,Ht,6 h,38.1%
same,Lym,6 h,73%
same,MCH,6 h,21.3 pg
same,MCHC,6 h,35.2%
same,MCV,6 h,60.3 fL
same,Mono,6 h,3%
same,Neu,6 h,21.4%
same,PT,6 h,12 s
same,Plat,6 h,123.6 x10_4/uL
same,RBC,6 h,632.8 x10_4/ul
same,Ret,6 h,7.7%
same,WBC,6 h,93.2 x10_2/uL
same,KIDNEY_L,6 h,1 g
same,KIDNEY_R,6 h,0.9 g
same,KIDNEY_TOTAL,6 h,1.9 g
same,LIVER,6 h,9.1 g
same,ALP,6 h,821 IU/L
same,ALT,6 h,32.4 IU/L
same,AST,6 h,68 IU/L
same,CRE,6 h,0.4 mg/dL
same,DBIL,6 h,0.074 mg/dL
same,GLC,6 h,183.2 mg/dL
same,IP,6 h,9.3 mg/dL
same,K,6 h,3.9 meq/L
same,LDH,6 h,170.8 IU/L
same,Na,6 h,141.4 meq/L
same,PL,6 h,126.8 mg/dL
same,RALB,6 h,3.2 g/dL
same,TBIL,6 h,0.1 mg/dL
same,TC,6 h,70.8 mg/dL
same,TP,6 h,5.3 g/dL
same,gamma-GTP,6 h,1 IU/L
same,TERMINAL_BW,9 h,205.8 g
same,APTT,9 h,17.9 s
same,Bas,9 h,0%
same,Eos,9 h,1%
same,Fbg,9 h,222 mg/dL
same,Hb,9 h,13.3 g/dL
same,Ht,9 h,37.5%
same,Lym,9 h,78.2%
same,MCH,9 h,21.5 pg
same,MCHC,9 h,35.6%
same,MCV,9 h,60.5 fL
same,Mono,9 h,2%
same,Neu,9 h,17.8%
same,PT,9 h,12.3 s
same,Plat,9 h,131.6 x10_4/uL
same,RBC,9 h,620 x10_4/ul
same,Ret,9 h,7.6%
same,WBC,9 h,87.2 x10_2/uL
same,KIDNEY_L,9 h,0.9 g
same,KIDNEY_R,9 h,0.9 g
same,KIDNEY_TOTAL,9 h,1.8 g
same,LIVER,9 h,7.9 g
same,ALP,9 h,871.4 IU/L
same,ALT,9 h,33.4 IU/L
same,AST,9 h,65.6 IU/L
same,CRE,9 h,0.4 mg/dL
same,DBIL,9 h,0.072 mg/dL
same,GLC,9 h,193.8 mg/dL
same,IP,9 h,10 mg/dL
same,K,9 h,3.7 meq/L
same,LDH,9 h,128.4 IU/L
same,Na,9 h,141.8 meq/L
same,PL,9 h,130.8 mg/dL
same,RALB,9 h,3.3 g/dL
same,TBIL,9 h,0.1 mg/dL
same,TC,9 h,74 mg/dL
same,TP,9 h,5.4 g/dL
same,gamma-GTP,9 h,1 IU/L
same,TERMINAL_BW,24 h,221.4 g
same,APTT,24 h,20.8 s
same,Bas,24 h,0.8%
same,Eos,24 h,0.8%
same,Fbg,24 h,228.6 mg/dL
same,Hb,24 h,13.7 g/dL
same,Ht,24 h,38.7%
same,Lym,24 h,75%
same,MCH,24 h,21.5 pg
same,MCHC,24 h,35.4%
same,MCV,24 h,60.7 fL
same,Mono,24 h,3.6%
same,Neu,24 h,19.2%
same,PT,24 h,11.9 s
same,Plat,24 h,130.5 x10_4/uL
same,RBC,24 h,638 x10_4/ul
same,Ret,24 h,6.5%
same,WBC,24 h,110.6 x10_2/uL
same,KIDNEY_L,24 h,1 g
same,KIDNEY_R,24 h,1 g
same,KIDNEY_TOTAL,24 h,1.9 g
same,LIVER,24 h,10.1 g
same,ALP,24 h,880.2 IU/L
same,ALT,24 h,43.8 IU/L
same,AST,24 h,73.6 IU/L
same,CRE,24 h,0.4 mg/dL
same,DBIL,24 h,0.074 mg/dL
same,GLC,24 h,198.2 mg/dL
same,IP,24 h,8.5 mg/dL
same,K,24 h,3.7 meq/L
same,LDH,24 h,142.2 IU/L
same,Na,24 h,141.8 meq/L
same,PL,24 h,134.2 mg/dL
same,RALB,24 h,3.4 g/dL
same,TBIL,24 h,0.1 mg/dL
same,TC,24 h,70 mg/dL
same,TP,24 h,5.5 g/dL
same,gamma-GTP,24 h,1 IU/L
